Assays:
[1] = tested on: alfa smooth muscle actin (αSMA) gene expression in human stellate cells (HSCs); assay: Anti-fibrotic activity in human hepatic stellate cells (TGF-β-induced αSMA gene expression); assay type: cell-based; conditions: primary human HSCs; 0.0001-1 μM, TGF-β 0.2 ng/mL, forskolin 1 μM, 24 hours
Protocol: The effect on human stellate cells (HSCs) activation was evaluated by gene expression of alfa smooth muscle actin (αSMA) induced by TGF-β.
Primary HSCs (ScienCell) were suspended in serum-free SteCM medium (ScienCell) and seeded on Poly-D-Lysine-coated 96 well plates as 2.5×10^3 cells/100 uL/well. Six hours after the seeding, HSCs were treated with Compound A (0, 0.0001, 0.001, 0.01, 0.1, and 1 μM), TGF-β (0.2 ng/mL) and forskolin (1 μM) for 24 hours. After the 24-hours incubation, total RNA was extracted from cell lysate using RNeasy 96 Kit (QIAGEN 74182). cDNA was amplified using High-Capacity cDNA Reverse Transcription Kit (ABI 4368813), and target gene mRNA was measured using Taqman PCR. The target gene expression level was normalized by GAPDH. The experiment was repeated 5 times.

[2] = tested on: TNFα gene expression in THP-1 cells; assay: Anti-inflammatory effect in THP-1 cells (LPS-induced TNFα gene expression); assay type: cell-based, human; conditions: PMA-treated THP-1 cells; 0.0001-1 μM, LPS 1 ng/mL, forskolin 0.1 μM, 5 hours
Protocol: Anti-inflammatory effect of Compound A was evaluated by gene expression of TNFα induced by LPS in THP-1 cells, a human monocytic cell line.
THP-1 cells (ATCC) were suspended in RPMI medium containing 10% FBS and 50 ng/mL PMA (2.5×10^5 cells/mL) and seeded on 96 well plates. Fourty-eight hours after the seeding, the medium was exchanged to serum-free RPMI medium. Three hours after the exchange, Compound A (0, 0.0001, 0.001, 0.01, 0.1 and 1 μM), LPS (1 ng/mL), and forskolin (0.1 μM) were added to the THP-1 cells. After the 5-hours incubation, total RNA was extracted from cell lysate using RNeasy 96 Kit (QIAGEN 74182). cDNA was amplified using High-Capacity cDNA Reverse Transcription Kit (ABI 4368813), and target gene mRNA was measured using Taqman PCR. The target gene expression level was normalized by GAPDH. The experiment was repeated 5 times.

[3] = tested on: Male C57BL/6J mice (DIO); assay: Body weight, fat and lean mass, 4 weeks treatment in diet-induced obese (DIO) mice; assay type: in vivo; conditions: for Body weight change from pretreatment (Day 0): mean±S.D., vehicle +3.8%
Protocol: Male C57BL/6J mice were obtained from CLEA Japan, Inc. The mice were fed High fat diet D12451 (Research diets, Inc) from 5 week to 54-week old and water ad libitum.
All mice were housed individually in animal cages and used for the study after 2 weeks of acclimation period. Animal groups (n=7) were treated with either vehicle (0.5 w/v % methylcellulose, p.o.) or Compound A (1 mg/kg or 3 mg/kg, p.o. suspension in 0.5 w/v % methylcellulose solution) in the evening once a day for 4 weeks from 50 weeks of age. Body weight was measured 2 or 3 times per week. Regarding body composition fast mass and lean mass were measured.
Body composition (fat mass and lean mass) was measured by Echo-MRI-900 (ALOKA Japan).
All data are presented as mean±S.D. For evaluation of the effects of Compound A, statistical significances between vehicle (p.o.) and Compound A treated groups were analyzed with one-tailed Williams' test or Shirley-Williams test when the variances among the groups were homogeneous or heterogeneous, respectively. The p-values less than 0.025 were considered statistically significant in one-tailed Williams' test or Shirley-Williams test. Body weight change from pretreatment (Day 0) was calculated using the following formula: [(BW-BW at Day 0)/BW at Day 0]×100.

[4] = tested on: Homozygous LDLR-KO mice; assay: Prophylactic effects in a mouse model of NASH (LDLR-KO mice, mCDAA diet); assay type: in vivo; conditions: LDLR-KO mice on mCDAA diet, 1, 3 and 10 mg/kg p.o. QD for 7 weeks
Protocol: Prophylactic effects of Compound A on parameters such as a) hepatic fibrosis formation, b) hepatic triglyceride formation and c) plasma ALT reduction were examined in a rodent model of NASH.
(§1) Homozygous low-density lipoprotein receptor knockout (LDLR-KO) mice were fed with chow or modified choline deficient, L-amino acid-defined (mCDAA) diet (A08111307, Research Diets, USA). After 1 week under chow or mCDAA diet, the mice were orally dosed with Compound A (1, 3 and 10 mg/5 ml/kg, QD, n=10; suspension in 0.5 w/v % methylcellulose suspension) for 7 weeks.

[5] = Phase 1 clinical studies (single rising dose and multiple rising dose); assay type: in vivo, humans
Text: Compound A differs from other development candidates intended for the treatment of NAFLD/NASH in that it exerts its effects via anti-inflammatory, anti-fibrotic and anti-steatotic mode of action. […] It is furthermore believed that all of these effects observed in in vitro and animal experiments will translate in corresponding effects in the clinical setting in humans.

[6] = tested on: tissue inhibitor of metalloproteases-1 (TIMP-1) gene expression; assay: Hepatic gene expression in prophylactic NASH mouse model, TIMP-1 (Taqman PCR); assay type: in vivo; conditions: LDLR-KO mice on mCDAA diet; 1, 3 and 10 mg/kg p.o. QD for 7 weeks; liver mRNA
Protocol: as §1
In addition prophylactic effects of Compound A on hepatic gene expression were evaluated. After total RNA was extracted from liver, cDNA was amplified using High-Capacity cDNA Reverse Transcription Kit (ABI 4368813), and target gene mRNA was measured using Taqman PCR. The target gene expression level was normalized by GAPDH.

[7] = 1 mg/kg p.o. once a day for 4 weeks
[8] = 1 and 3 mg/kg p.o. once a day for 4 weeks

Compound: CCOc1cc2c(cc1OC)C(c1ccc(=O)n(C)c1)=N[C@@H]1CC[C@@H](O)C[C@H]21 [Compound A, 5-((2R,4aR,10bR)-9-Ethoxy-2-hydroxy-8-methoxy-1,2,3,4,4a,10b-hexahydro-phenanthridin-6-yl)-1-methyl-1H-pyridin-2-one]
- TGF-β-induced αSMA gene expression in HSCs [1]: dose-dependently suppressed
- LPS-induced TNF-α gene expression in THP-1 cells [2]: dose-dependently suppressed
- body weight reduction corrected with vehicle-treated body weight change [3, 7]: −8.7±3.5%
- Body weight change from pretreatment (Day 0) [3, 7]: −4.9±3.5%
- Body weight change from pretreatment (Day 0) ([3]; 3 mg/kg p.o. once a day for 4 weeks): −17.2±4.0%
- body weight during the 4-week study period ([3]; 1 and 3 mg/kg p.o. once a day): durable body weight lowering effect
- fat mass (Echo-MRI) [3, 8]: dose dependently and significantly decreased
- lean mass (Echo-MRI) [3, 8]: without affecting
- Body weight [4]: slightly decreased
- Hepatic triglyceride (TG) content [4]: significantly reduced
- Liver weight [4]: dose dependently decreased
- epididymal white adipose tissue (surrogate for body fat mass) [4]: dose dependently decreased
- food intake [4]: no change
- plasma ALT levels [4]: significantly reduced
- hepatic fibrosis area ([4]; started after 1 week of diet): dose-dependent reduction
- PDE4 inhibitor specific adverse events (diarrhea, nausea) ([5]; Phase 1, single dose 0.05 to 0.85 mg, multiple dose 0.05 to 0.8 mg 7 days, 0.35 and 0.8 mg up to 14 days): no PDE4 inhibitor specific adverse events
- safety and pharmacokinetic profile ([5]; Phase 1 single rising dose and multiple rising dose studies): very favorable
- hepatic TIMP-1 gene expression (normalized by GAPDH) [6]: dose-dependent reduction

Source: patent US11179384B2, “Treatment of nonalcoholic fatty liver disease” (TAKEDA GMBH, priority 2016, dated 2021)
